The target of the experiment is CDK2 (human) (UniProt P24941). The experiment in a line: Enzyme Assay.
Regarding `CC(C)n1nnc2c(NCc3ccccc3)nc(N[C@H]3CC[C@H](N)CC3)nc21`, the IC50 (in general, the concentration that inhibits the measured activity by half) amounted to 11.3 µM. In turn, `O[C@H]1CC[C@H](Nc2nc(Nc3cccc(Cl)c3)c3nnn(Cc4ccccc4)c3n2)CC1` gave an IC50 above 100 µM.

For the molecule `CCC(CO)Nc1nc(NCc2ccccc2O)c2nnn(C(C)C)c2n1` (stereo not given), the IC50 turned out to be 1.2 µM. To `CC(C)C(CO)Nc1nc(NCc2cccc(O)c2)c2nnn(C(C)C)c2n1` (stereo not given) belongs 8 µM. To `CCC(CO)Nc1nc(NCc2ccccc2)c2nnn(C(C)C)c2n1` (stereo not given) belongs 4.1 µM; to `CC(C)n1nnc2c(NCc3ccccc3)nc(NCCCO)nc21`, 100 µM.

Molecule `O[C@H]1CC[C@H](Nc2nc(NCC3CCCCC3)c3nnn(Cc4ccccc4)c3n2)CC1` gave an IC50 above 100 µM. The figure for `CC(C)C(CO)Nc1nc(NCc2ccccc2O)c2nnn(C(C)C)c2n1` (stereo not given) is 0.84 µM; for `CC(C)C(CO)Nc1nc(Nc2cccc(Cl)c2)c2nnn(C(C)C)c2n1` (stereo not given) it is 20 µM; for `CC(C)n1nnc2c(NCc3ccccc3O)nc(N[C@@H]3CCCC[C@@H]3N)nc21` it is 4.1 µM. To `CCC(CO)Nc1nc(NCc2cccc(O)c2)c2nnn(C(C)C)c2n1` (stereo not given) belongs 10 µM; to `CC(C)n1nnc2c(Nc3cccc(Cl)c3)nc(N[C@H]3CC[C@H](N)CC3)nc21`, 1.1 µM. To `CC(C)n1nnc2c(NCc3ccc(O)cc3)nc(N[C@H]3CC[C@H](N)CC3)nc21` belongs 2.8 µM; to `CC(C)n1nnc2c(NCc3cccc(O)c3)nc(N[C@H]3CC[C@H](N)CC3)nc21`, 4.9 µM; to `CCCCCCNc1nc(NC(CO)c2ccccc2)c2nnn(C(C)C)c2n1` (stereo not given), above 100 µM. Molecule `CC(C)n1nnc2c(NCc3ccccc3O)nc(NCc3ccccc3O)nc21` yielded an IC50 above 100 µM.

In turn, `CC(C)n1nnc2c(NCc3ccccc3O)nc(N[C@H]3CC[C@H](N)CC3)nc21` showed a concentration for half-maximal inhibition (IC50) of 16.4 µM. To `COc1ccc(CNc2nc(N[C@@H]3CCCC[C@@H]3N)nc3c2nnn3C(C)C)cc1O` belongs 13.7 µM; to `CCC(CO)Nc1nc(NCc2ccc(OC)c(O)c2)c2nnn(C(C)C)c2n1` (stereo not given), 2.3 µM.

The molecule `CC(C)C(CO)Nc1nc(NCc2ccccc2)c2nnn(C(C)C)c2n1` (stereo not given) yielded an IC50 of 7.3 µM.

These data come from the Kinase Knowledgebase extract (Sharma et al. 2016).
